Measurements as given in patent US10807959B2, “WDR5-MLL1 inhibitors and modulators” (Vanderbilt University, priority 2018, dated 2020).

molecular target: T1, WDR5 (Homo sapiens (Human), UniProt P61964); test: Fluorescence polarization anisotropy (FPA) competition assay, displacement of FITC-MLL or 10mer-Thr-FAM peptide; assay type: binding; conditions: Inhibition of WDR5 by FPA assay
Description: The assay is run in 384-well format and is read on a BioTek Cytation. […] Replicate values are fit to a 4-parameter fit in XLFit to generate a single IC50 value for each compound that is then converted to a Ki value. Experiments are repeated to generate a 2nd, independent Ki value; values from the two experiments are averaged to produce the reported Ki value for the compound.

Row | SMILES | Ki
1 | COc1cncc(-c2cc(Cn3ccnc3)cc(C(=O)NCc3ccc(Cl)c(Cl)c3)c2)c1 [Example 128, 3-((1H-Imidazol-1-yl)methyl)-N-(3,4-dichlorobenzyl)-5-(5-methoxypyridin-3-yl)benzamide] | 2.2 nM
2 | COc1cc(Cn2ccnc2)cc(C(=O)NCc2ccc(Cl)c(C)c2)c1 [Example 113, 3-((1H-Imidazol-1-yl)methyl)-N-(4-chloro-3-methylbenzyl)-5-methoxybenzamide] | 141 nM
3 | Cc1cc(C)cc(CNC(=O)c2cc(Cn3ccnc3)cc(-c3ccc(F)cc3Cl)n2)c1 [Example 153, 4-((1H-Imidazol-1-yl)methyl)-6-(2-chloro-4-fluorophenyl)-N-(3,5-dimethylbenzyl)picolinamide] | 4.8 nM
4 | COc1cc(OC)cc(C(C)NC(=O)c2cc(Cn3ccnc3)cc(-c3ccc(F)cc3Cl)n2)c1 (stereo not drawn) [Example 154, 4-((1H-Imidazol-1-yl)methyl)-6-(2-chloro-4-fluorophenyl)-N-(1-(3,5-dimethoxyphenyl)ethyl)picolinamide] | 5.1 nM
5 | CC(C)(NC(=O)c1cc(Cn2ccnc2)cc(-c2ccc(F)cc2Cl)n1)C1CC1 [Example 149, 4-((1H-imidazol-1-yl)methyl)-6-(2-chloro-4-fluorophenyl)-N-(2-cyclopropylpropan-2-yl)picolinamide] | 8.6 nM
6 | COc1cc(CNC(=O)c2cc(Cn3ccnc3)cc(-c3ccoc3C)c2)cc(OC)c1 [Example 130, 3-((1H-Imidazol-1-yl)methyl)-N-(3,5-dimethoxybenzyl)-5-(2-methylfuran-3-yl)benzamide] | 2.1 nM
7 | Cc1cc(CNC(=O)c2cc(Cn3ccnc3)cc(OC3CCCC3)c2)ccc1Cl [Example 115, 3-((1H-Imidazol-1-yl)methyl)-N-(4-chloro-3-methylbenzyl)-5-(cyclopentyloxy)benzamide] | 3.5 nM
8 | O=C(NCc1cc(Cl)cc(Cl)c1)c1cc(Cl)cc(Cn2ccnc2)c1 [Example 110, 3-((1H-Imidazol-1-yl)methyl)-5-chloro-N-(3,5-dichlorobenzyl)benzamide] | 33.7 nM
9 | Cc1cc(-c2cc(Cn3ccnc3)cc(C(=O)NCc3ccc(Cl)c(Cl)c3)c2)ccn1 [Example 123, 3-((1H-Imidazol-1-yl)methyl)-N-(3,4-dichlorobenzyl)-5-(2-methylpyridin-4-yl)benzamide] | 8.7 nM
10 | Cc1ccncc1-c1cc(Cn2ccnc2)cc(C(=O)NCc2ccc(Cl)c(Cl)c2)c1 [Example 121, 3-((1H-imidazol-1-yl)methyl)-N-(3,4-dichlorobenzyl)-5-(4-methylpyridin-3-yl)benzamide] | 1.3 nM
11 | COc1cc(CNC(=O)c2cc(Cn3ccnc3)cc(Oc3ccccc3)c2)cc(OC)c1 [Example 120, 3-((1H-imidazol-1-yl)methyl)-N-(3,5-dimethoxybenzyl)-5-phenoxybenzamide] | 5.1 nM

same assay, conditions: Table B2, WDR5 WIN-site binding affinity; values not less than 1 nM (FPA)

Row | SMILES | Ki
12 | CC(NC(=O)c1cc(Cl)cc(CNC2=NCCN2)c1)c1cccc(Cl)c1 (stereo not drawn) [Example B12] | 65.1 nM
13 | O=C(NCc1cc(Cl)cc(Cl)c1)c1ccc(F)c(CNC2=NCCN2)c1 [Example B17] | 2.47 nM
14 | Cc1cc(C)cc(CNC(=O)c2ccc(F)c(CNC3=NCCN3)c2)c1 [Example B7] | 8.46 nM
15 | COc1ccc(CNC(=O)c2cc(F)c(F)c(CNC3=NCCN3)c2)cc1Cl [Example B32] | 4.51 nM
16 | Cc1cc(C)nc(CNC(=O)c2ccc(F)c(CNC3=NCCN3)c2)n1 [Example B45] | 11.3 nM
17 | Cc1cc(CNC(=O)c2cc(CNC3=NCCN3)cc(-c3ccc(F)cc3Cl)c2)ccc1Cl [Example B58] | 2.06 nM
18 | COc1cc(CNC(=O)c2ccc(OC)c(CNC3=NCCN3)c2)ccc1Cl [Example B38] | 24.5 nM
19 | CC(C)N(Cc1cccc(Cl)c1)C(=O)c1cccc(CNC2=NCCN2)c1 [Example B2] | 400 nM
20 | COc1cc(OC)cc(C(C)NC(=O)c2cc(CNC3=NCCN3)c(F)cc2F)c1 (stereo not drawn) [Example B49] | 1.06 nM
21 | COc1cc(CNC(=O)c2ccc(OC)c(CNC3=NCCN3)c2)cc(OC)c1 [Example B27, 3-(((4,5-dihydro-1H-imidazol-2-yl)amino)methyl)-N-(3,5-dimethoxybenzyl)-4-methoxybenzamide] | 7.52 nM
22 | Cc1cc(CNC(=O)c2cccc(CNC3=NCCN3)c2)ccc1Cl [Example B4] | 11.9 nM
23 | COc1ccc(C(=O)NCc2ccc(Cl)c(C)c2)cc1CNC1=NCCN1 [Example B42] | 1.51 nM
24 | O=C(NCc1ccc(Cl)c(Cl)c1)c1cccc(CNC2=NCCN2)c1 [Example B3] | 209 nM
25 | CC(C)Oc1ccc(C(=O)NCc2ccc(Cl)c(Cl)c2)cc1CNC1=NCCN1 [Example B53] | 40.9 nM
26 | COc1cc(OC)cc(C(C)NC(=O)c2ccc(OC(C)C)c(CNC3=NCCN3)c2)c1 (stereo not drawn) [Example B52, 3-(((4,5-dihydro-1H-imidazol-2-yl)amino)methyl)-N-(1-(3,5-dimethoxyphenyl)ethyl)-4-isopropoxybenzamide] | 33 nM
27 | Cc1cc(C)cc(CNC(=O)c2cc(Cl)cc(CNC3=NCCN3)c2)c1 [Example B11] | 46 nM

Row | SMILES | Ki
28 | O=C(NCc1ccc(Cl)cn1)c1ccc(F)c(CNC2=NCCN2)c1 [Example B23] | 30.3 nM
29 | Cc1ccnc(C(NC(=O)c2ccc(F)c(CNC3=NCCN3)c2)C2CC2)c1 (stereo not drawn) [Example B20] | 4.6 nM
30 | COc1cc(OC)cc(C(C)NC(=O)c2ccc(OC)c(CNC3=NCCN3)c2)c1 (stereo not drawn) [Example B43] | 1.82 nM
31 | Cc1ccc(CNC(=O)c2cc(Cl)cc(CNC3=NCCN3)c2)cc1Cl [Example B10] | 54.5 nM
32 | COc1ccnc(CNC(=O)c2ccc(OC)c(CNC3=NCCN3)c2)c1 [Example B40] | 7.21 nM
33 | Cc1cc(-c2cc(CNC3=NCCN3)cc(C(=O)NCc3cccc(F)n3)c2)ccn1 [Example B95] | 6.1 nM
34 | O=C(NCc1ccc(Cl)c(Cl)c1)c1cc(CNC2=NCCN2)cc(-c2ccc(F)cc2Cl)c1 [Example B54] | 1.12 nM
35 | Cc1ccncc1-c1cc(CNC2=NCCN2)cc(C(=O)NCc2cccc(F)n2)c1 [Example B89] | 4.39 nM
36 | COc1ccc(C(=O)NCc2ccc(F)c(CNC3=NCCN3)c2)cc1Cl [Example B26] | 3.24 nM
37 | Cc1cc(C)cc(CNC(=O)c2cc(CNC3=NCCN3)cc(-c3ccc(F)cc3Cl)c2)c1 [Example B55] | 1.27 nM
38 | COc1cc(OC)cc(C(C)NC(=O)c2ccc(OC(C)C)c(CNC3=NCCC3)c2)c1 (stereo not drawn) [Example B124] | > 33 nM
39 | COc1cc(OC)cc(C(C)NC(=O)c2cc(F)c(F)c(CNC3=NCCN3)c2)c1 (stereo not drawn) [Example B35] | 4.22 nM
40 | COc1ccnc(CNC(=O)c2cc(F)c(F)c(CNC3=NCCN3)c2)c1 [Example B34] | 12 nM
41 | COc1cc(CN(C)C(=O)c2ccc(F)c(CNC3=NCCN3)c2)cc(OC)c1 [Example B24] | 49.8 nM
42 | O=C(NCc1cc(Cl)ccn1)c1ccc(F)c(CNC2=NCCN2)c1 [Example B16] | 9.05 nM
43 | Cc1cc(C)cc(CNC(=O)c2cc(F)c(F)c(CNC3=NCCN3)c2)c1 [Example B31] | 8.11 nM

same assay, conditions: Table C2, WDR5 WIN-site binding affinity; values not less than 1 nM (FPA)

Row | SMILES | Ki
44 | Cc1cc(CNC(=O)c2cc(CNC3=NCCC3)cc(-c3ccc(F)cc3C)n2)ccc1Cl [Example C23] | 3.13 nM
45 | COc1cc(OC)cc(C(C)NC(=O)c2cc(CNC3=NCCC3)ccn2)c1 (stereo not drawn) [Example C21, 4-(((3,4-dihydro-2H-pyrrol-5-yl)amino)methyl)-N-(1-(3,5-dimethoxyphenyl)ethyl)picolinamide] | 33 nM

molecular target: T1, WDR5; test: TR-FRET binding assay, displacement of 10mer-Thr-FAM probe from His-tagged WDR5; conditions: not given
Experimental: The LanthaScreenTM Elite Tb-anti-HIS Antibody from ThermoFisher Scientific was used for this purpose. […] The ratio of the 520 and 495 signals are then utilized to generate a dose-response curve to calculate an IC50 value. […] WDR[…] tag protein is used at 2 nM.

Row | SMILES | Ki
46 | COc1ccc(CNC(=O)c2cc(CNC3=NCCN3)cc(-c3cc(C)cnc3F)c2)cc1OC [Example B107] | 0.0965 nM
47 | COc1ccnc(CNC(=O)c2cc(CNC3=NCCN3)cc(-c3cc(Cl)ccc3OC)c2)c1 [Example B116] | 0.106 nM

same assay, conditions: Inhibition of WDR5 by TR-FRET assay

Row | SMILES | Ki
48 | Cc1ccncc1-c1cc(CNC2=NCCN2)cc(C(=O)NCc2ccc(Cl)c(Cl)c2)c1 [Example 12, N-(3,4-dichlorobenzyl)-3-(((4,5-dihydro-1H-imidazol-2-yl)amino)methyl)-5-(4-methylpyridin-3-yl)benzamide] | < 0.1 nM
49 | COc1cc(F)ccc1-c1cc(Cn2ccnc2C)cc(C(=O)NCc2ccc(Cl)c(Cl)c2)n1 [Example 165, N-(3,4-Dichlorobenzyl)-6-(4-fluoro-2-methoxyphenyl)-4-((2-methyl-1H-imidazol-1-yl)methyl)picolinamide] | 11 nM
50 | Cc1nc(F)ccc1-c1cc(CNC2=NCCN2)cc(C(=O)NC(C2CC2)C2CC2)c1 [Example 10, N-(dicyclopropylmethyl)-3-(((4,5-dihydro-1H-imidazol-2-yl)amino)methyl)-5-(6-fluoro-2-methylpyridin-3-yl)benzamide] | 2.9 nM
51 | COc1cc(CNC(=O)c2cc(CNC3=NCCN3)cc(-c3ccc(F)nc3C)n2)cc(OC)c1 [Example 78, 4-(((4,5-Dihydro-1H-imidazol-2-yl)amino)methyl)-N-(3,5-dimethoxybenzyl)-6′-fluoro-2′-methyl-[2,3′-bipyridine]-6-carboxamide] | 0.72 nM
52 | COc1cc(CNC(=O)c2cc(Cn3ccnc3)cc(-c3ccc(=O)[nH]c3)c2)cc(OC)c1 [Example 145, 3-((1H-Imidazol-1-yl)methyl)-N-(3,5-dimethoxybenzyl)-5-(6-oxo-1,6-dihydropyridin-3-yl)benzamide] | 22 nM
53 | Cc1cc(-c2cc(CNC3=NCCC3)cc(C(=O)NCc3ccc(Cl)c(C)c3)c2)c(C)cc1F [Example 66, N-(4-Chloro-3-methylbenzyl)-5-(((3,4-dihydro-2H-pyrrol-5-yl)amino)methyl)-4′-fluoro-2′,5′-dimethyl-[1,1′-biphenyl]-3-carboxamide] | 0.38 nM
54 | Cc1nccn1Cc1cc(C(=O)NCc2ccc(Cl)c(Cl)c2)cc(-c2cccc(CO)c2)c1 [Example 147, N-(3,4-dichlorobenzyl)-3′-(hydroxymethyl)-5-((2-methyl-1H-imidazol-1-yl)methyl)-[1,1′-biphenyl]-3-carboxamide] | 0.31 nM
